Measured values taken from US8435978B2, “Substituted sulfonamide compounds” (Gruenenthal GmbH, priority 2006, dated 2013).

Columns and labels:
[1] = target: T1, human B1R receptor (Homo sapiens, UniProt P46663); experiment: Functional study on the bradykinin receptor 1 (B1R), FLIPR Ca2+ assay, hB1R cells; format: cell-based; conditions: CHO-K1, test substance 10 μM, agonist Lys-Des-Arg9-bradykinin 0.5 nM, % inhibition compared with the maximum achievable inhibition, read-out: B1R Antagonism, human [10 μM] % Inhibition
T1 construct: host or cells: CHO K1 cells (Chinese hamster ovary), stably transfected
T1 sequence (P46663 1-353): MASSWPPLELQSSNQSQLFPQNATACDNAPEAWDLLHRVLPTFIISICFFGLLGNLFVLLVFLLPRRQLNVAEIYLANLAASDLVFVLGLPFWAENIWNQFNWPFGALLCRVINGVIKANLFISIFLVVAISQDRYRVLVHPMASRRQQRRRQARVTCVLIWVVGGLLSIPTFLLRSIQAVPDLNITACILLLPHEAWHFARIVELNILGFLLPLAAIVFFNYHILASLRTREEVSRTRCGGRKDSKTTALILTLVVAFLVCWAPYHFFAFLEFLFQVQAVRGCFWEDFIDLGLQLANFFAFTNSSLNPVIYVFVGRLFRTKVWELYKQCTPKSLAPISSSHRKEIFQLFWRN
Summary of the method: (§1)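 FLIPR Ca2+ assay in recombinant CHO K1 cells (human or rat B1R), Fluo-4 dye; 10 μM compound, 10 min, then EC-level agonist per species (0.5 nM Lys-Des-Arg9-BK human / 100 nM Des-Arg9-BK rat). Output: % inhibition vs maximum.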

[2] = target: T2, B1R receptor of the rat (Rattus norvegicus, UniProt P97583); experiment: Functional study on the bradykinin receptor 1 (B1R), FLIPR Ca2+ assay, rB1R cells; format: cell-based; conditions: CHO-K1, test substance 10 μM, agonist Des-Arg9-bradykinin 100 nM, % inhibition compared with the maximum achievable inhibition, read-out: B1R Antagonism, rat [10 μM] % Inhibition
T2 construct: host or cells: CHO K1 cells (Chinese hamster ovary), stably transfected
T2 sequence (P97583 1-337): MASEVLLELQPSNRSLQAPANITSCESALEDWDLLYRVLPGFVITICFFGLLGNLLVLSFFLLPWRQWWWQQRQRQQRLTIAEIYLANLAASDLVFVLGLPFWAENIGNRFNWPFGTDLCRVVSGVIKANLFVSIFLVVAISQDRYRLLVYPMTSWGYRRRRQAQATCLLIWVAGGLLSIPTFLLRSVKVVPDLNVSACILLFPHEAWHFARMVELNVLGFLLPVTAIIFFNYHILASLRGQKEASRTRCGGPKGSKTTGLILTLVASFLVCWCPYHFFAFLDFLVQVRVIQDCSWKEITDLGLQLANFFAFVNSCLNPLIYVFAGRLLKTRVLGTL
Summary of the method: as §1

SMILES | inhibition at 10 µM [1] [%] | inhibition at 10 µM [2] [%]
CN(C)CCN(Cc1ccccc1)C(=O)COCC1CCCCN1S(=O)(=O)c1c(Cl)cccc1Cl (stereo not shown) [Example 489, N-benzyl-2-((1-(2,6-dichlorophenylsulfonyl)piperidin-2-yl)methoxy)-N-(2-(dimethylamino)ethyl)acetamide] | 99.3 | 100
CCc1ccc(CC2CCCN2C(=O)COCC2CCCN2S(=O)(=O)c2c(C)cc(OC)cc2C)nc1 (stereo not shown) [Example 490, 1-(2-((5-ethylpyridin-2-yl)methyl)pyrrolidin-1-yl)-2-((1-(4-methoxy-2,6-dimethylphenylsulfonyl)pyrrolidin-2-yl)methoxy)ethanone] | 93.5 | 103
COc1cc(C)c(S(=O)(=O)N2CCCC2COCC(=O)N2CCN(c3ccccc3OC)CC2)c(C)c1 (stereo not shown) [Example 491, 2-((1-(4-methoxy-2,6-dimethylphenylsulfonyl)pyrrolidin-2-yl)methoxy)-1-(4-(2-methoxyphenyl)piperazin-1-yl)ethanone] | 96.3 | 97.9
COc1cc(C)c(S(=O)(=O)N2CCCC2COCC(=O)N2CCN(CC3CCCCC3)CC2)c(C)c1 (stereo not shown) [Example 492, 1-(4-(cyclohexylmethyl)piperazin-1-yl)-2-((1-(4-methoxy-2,6-dimethylphenylsulfonyl)pyrrolidin-2-yl)methoxy)ethanone] | 103 | 104
COc1cc(C)c(S(=O)(=O)N2CCCC2COCC(=O)Nc2ccc(N3CCOCC3)c(Cl)c2)c(C)c1 (stereo not shown) [Example 493, N-(3-chloro-4-morpholinophenyl)-2-((1-(4-methoxy-2,6-dimethylphenylsulfonyl)pyrrolidin-2-yl)methoxy)acetamide] | 40.6 | 99.5
COc1cc(C)c(S(=O)(=O)N2CCCC2COCC(=O)Nc2ccc3c(c2)ncn3C)c(C)c1 (stereo not shown) [Example 494, 2-((1-(4-methoxy-2,6-dimethylphenylsulfonyl)pyrrolidin-2-yl)methoxy)-N-(1-methyl-1H-benzo[d]imidazol-5-yl)acetamide] | 26.2 | 73.4
COc1cc(C)c(S(=O)(=O)N2CCCC2COCC(=O)NCC(c2ccc(C(F)(F)F)cc2)N(C)C)c(C)c1 (stereo not shown) [Example 495, N-(2-(dimethylamino)-2-(4-(trifluoromethyl)phenyl)ethyl)-2-((1-(4-methoxy-2,6-dimethylphenylsulfonyl)pyrrolidin-2-yl)methoxy)acetamide] | 30.7 | 95.7
COc1cc(C)c(S(=O)(=O)N2CCCC2COCC(=O)NCC(c2ccc(C(F)(F)F)cc2)N2CCCC2)c(C)c1 (stereo not shown) [Example 496, 2-((1-(4-methoxy-2,6-dimethylphenylsulfonyl)pyrrolidin-2-yl)methoxy)-N-(2-(pyrrolidin-1-yl)-2-(4-(trifluoromethyl)phenyl)ethyl)acetamide] | 68.2 | 103
O=C(COCC1CCCCN1S(=O)(=O)c1c(Cl)cccc1Cl)N1CCCC1c1cccnc1 (stereo not shown) [Example 497, 2-((1-(2,6-dichlorophenylsulfonyl)piperidin-2-yl)methoxy)-1-(2-(pyridin-3-yl)pyrrolidin-1-yl)ethanone] | 66 | 101
COc1ccccc1N1CCN(C(=O)COCC2CCCCN2S(=O)(=O)c2c(Cl)cccc2Cl)CC1 (stereo not shown) [Example 498, 2-((1-(2,6-dichlorophenylsulfonyl)piperidin-2-yl)methoxy)-1-(4-(2-methoxyphenyl)piperazin-1-yl)ethanone] | 94.2 | 96.7
O=C(COCC1CCCCN1S(=O)(=O)c1c(Cl)cccc1Cl)N1CCN(CC2CCCCC2)CC1 (stereo not shown) [Example 499, 1-(4-(cyclohexylmethyl)piperazin-1-yl)-2-((1-(2,6-dichlorophenylsulfonyl)piperidin-2-yl)methoxy)ethanone] | 103 | 101
